Data as given in patent US20160039880A1 (priority 2012, published 2016).
Converted amounts (≈) assume the structure as drawn. Read-outs that look alike come from different tables or passages of the source.

Experiments:
[1] = Water Solubility Assay (measured in pH 7.8 buffer); format: physicochemical; details: for solubility at 18 h: kinetic from dmso stock;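 as to all read-outs here: precipitation onset detected as rise in absorbance at 650 nm across increasing concentrations, after shaking for 18 h, blank wells receiving DMSO only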
[2] = molecular target: Human recombinant cyclophilin A (Cyp A) (Homo sapiens, UniProt P62937); test: Protease-free PPIase assay;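 also: cis to trans isomerization of SUC-AAPF-pNA by 2 nM enzyme, read as absorbance at 330 nm over 300 s at 10 °C, catalytic rate corrected for uncatalyzed background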
[3] = 35 mM HEPES buffer pH 7.8, 25 °C, aqueous buffer, pH 7.8 buffer, read-out: Water Solubility Assay

Sequence of Human recombinant cyclophilin A (Cyp A) (P62937 whole entry): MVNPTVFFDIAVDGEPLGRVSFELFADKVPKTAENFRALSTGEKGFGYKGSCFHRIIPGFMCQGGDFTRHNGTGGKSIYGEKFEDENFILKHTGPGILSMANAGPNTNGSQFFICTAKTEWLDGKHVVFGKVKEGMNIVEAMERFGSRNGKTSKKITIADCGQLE

solubility at 18 h [1, 3] [µM] | Ki [2] [nM] | solubility at 18 h ([1]; 25 °C, pH 7.8, aqueous buffer) [µM] | SMILES | Water Solubility Assay, concentration at which the compound remains in solution ([1]; 35 mM HEPES pH 7.8, 1% DMSO, 25 °C, 18 h) [µM] | Ki ([2]; read-out: Protease-free PPIase Assay Ki, cyclophilin A, 10 °C) [nM]
> 100 | 14 | – | CC[C@H]1NC(=O)[C@@H]([C@H](O)[C@H](C)CCN(C)Cc2cccnc2)N(C)C(=O)[C@@H](C(C)C)N(C)C(=O)[C@@H](CC(C)C)N(C)C(=O)[C@@H](CC(C)C)N(C)C(=O)[C@H](C)NC(=O)[C@@H](C)NC(=O)[C@@H](CC(C)C)N(C)C(=O)[C@@H](C(C)C)NC(=O)[C@H](CC(C)C)N(C)C(=O)[C@@H](C)N(C)C1=O [Compound DF, [(3R,4R,5S)-4-Hydroxy-3-methyl-5-(methylamino)-1-({pyridin-3-ylmethyl}-methylamino)-hexanoic acid]^1[(R)-methyl-Sar]^3 cyclosporin A] | – | –
– | 7.7 | 25 to 50 (≈ 33.4 to 66.8 µg/mL) | CC[C@H]1NC(=O)[C@@H]([C@H](O)[C@H](C)CCN2CCOCC2)N(C)C(=O)[C@@H](C(C)C)N(C)C(=O)[C@@H](CC(C)C)N(C)C(=O)[C@@H](CC(C)C)N(C)C(=O)[C@H](C)NC(=O)[C@@H](C)NC(=O)[C@@H](CC(C)C)N(C)C(=O)[C@@H](C(C)C)NC(=O)[C@H](CC(C)C)N(C)C(=O)[C@@H](SC(C)C)N(C)C1=O [Compound I, [(3R,4R,5S)-4-Hydroxy-3-methyl-5-(methylamino)-1-N-morpholino-hexanoic acid]^1[(S)-thio-isopropyl-Sar]^3 cyclosporin A] | – | –
– | 13 | > 100 | CC[C@H]1NC(=O)[C@@H]([C@H](O)[C@H](C)CCN(C)CC(C)C#N)N(C)C(=O)[C@@H](C(C)C)N(C)C(=O)[C@@H](CC(C)C)N(C)C(=O)[C@@H](CC(C)C)N(C)C(=O)[C@H](C)NC(=O)[C@@H](C)NC(=O)[C@@H](CC(C)C)N(C)C(=O)[C@@H](C(C)C)NC(=O)[C@H](CC(C)C)N(C)C(=O)[C@@H](C)N(C)C1=O (stereo partly drawn) [Compound DK, [(3R,4R,5S)-1-({2-Cyano-propyl}-methyl-amino)-4-hydroxy-3-methyl-5-(methylamino)-hexanoic acid]^1[(R)-methyl-Sar]^3 cyclosporin A] | – | –
– | 4.7 | > 100 | CC[C@H]1NC(=O)[C@@H]([C@H](O)[C@H](C)CCCCCN(CC)CC)N(C)C(=O)[C@@H](C(C)C)N(C)C(=O)[C@@H](CC(C)C)N(C)C(=O)[C@@H](CC(C)C)N(C)C(=O)[C@H](C)NC(=O)[C@@H](C)NC(=O)[C@@H](CC(C)C)N(C)C(=O)[C@@H](C(C)C)NC(=O)[C@H](CC(C)C)N(C)C(=O)[C@@H](C)N(C)C1=O [Compound AH, [(6R,7R,8S)-7-Hydroxy-6-methyl-8-(methylamino)-1-N-diethylamino-nonanoic acid]^1[(R)-methyl-Sar]^3 cyclosporin A] | – | –
– | 1.9 | 25 to 50 (≈ 33 to 66.1 µg/mL) | CS[C@@H]1C(=O)N(C)[C@@H](CC(C)C)C(=O)N[C@H](C(C)C)C(=O)N(C)[C@H](CC(C)C)C(=O)N[C@H](C)C(=O)N[C@@H](C)C(=O)N(C)[C@H](CC(C)C)C(=O)N(C)[C@H](CC(C)C)C(=O)N(C)[C@H](C(C)C)C(=O)N(C)[C@H]([C@H](O)[C@H](C)CCN2CCOCC2)C(=O)N[C@H](C(C)C)C(=O)N1C [Compound AM, [(3R,4R,5S)-4-Hydroxy-3-methyl-5-(methylamino)-1-morpholino-hexanoic acid]^1[(S)-thio-methyl-Sar]^3 cyclosporin D] | – | –
75 to 100 (≈ 98.3 to 131 µg/mL) | 4.9 | – | CC[C@H]1NC(=O)[C@@H]([C@H](O)[C@H](C)CCN(C)Cc2ccccn2)N(C)C(=O)[C@@H](C(C)C)N(C)C(=O)[C@@H](CC(C)C)N(C)C(=O)[C@@H](CC(C)C)N(C)C(=O)[C@H](C)NC(=O)[C@@H](C)NC(=O)[C@@H](CC(C)C)N(C)C(=O)[C@@H](C(C)C)NC(=O)[C@H](CC(C)C)N(C)C(=O)[C@@H](C)N(C)C1=O [Compound DA, [(3R,4R,5S)-4-Hydroxy-3-methyl-5-(methylamino)-1-({pyridin-2-ylmethyl}-methylamino)-hexanoic acid]^1[(R)-methyl-Sar]^3 cyclosporin A] | – | –
10 to 25 (≈ 13.8 to 34.5 µg/mL) | 2.8 | – | CC[C@H]1NC(=O)[C@@H]([C@H](O)[C@H](C)CCN(C)Cc2cc(C(F)(F)F)nn2C)N(C)C(=O)[C@@H](C(C)C)N(C)C(=O)[C@@H](CC(C)C)N(C)C(=O)[C@@H](CC(C)C)N(C)C(=O)[C@H](C)NC(=O)[C@@H](C)NC(=O)[C@@H](CC(C)C)N(C)C(=O)[C@@H](C(C)C)NC(=O)[C@H](CC(C)C)N(C)C(=O)[C@@H](C)N(C)C1=O [Compound DO, [(3R,4R,5S)-4-Hydroxy-3-methyl-5-(methylamino)-1-({1-methyl-3-trifluoromethyl-2H-pyrazol-5-ylmethyl}-methylamino)-hexanoic acid]^1[(R)-methyl-Sar]^3 cyclosporin A] | – | –
– | 4.3 | 50 to 75 (≈ 65.1 to 97.6 µg/mL) | CC[C@H]1NC(=O)[C@@H]([C@H](O)[C@H](C)CCN2CC3CCC(C2)O3)N(C)C(=O)[C@@H](C(C)C)N(C)C(=O)[C@@H](CC(C)C)N(C)C(=O)[C@@H](CC(C)C)N(C)C(=O)[C@H](C)NC(=O)[C@@H](C)NC(=O)C(CC(C)C)N(C)C(=O)[C@@H](C(C)C)NC(=O)[C@H](CC(C)C)N(C)C(=O)[C@@H](C)N(C)C1=O (stereo partly drawn) [Compound DV, [(3R,4R,5S)-4-Hydroxy-3-methyl-5-(methylamino)-1-(8-oxa-3-aza-bicyclo[3.2.1]oct-3-yl)-hexanoic acid]^1[(R)-methyl-Sar]^3 cyclosporin A] | – | –
– | 3.3 | > 100 | CC[C@H]1NC(=O)[C@@H]([C@H](O)[C@H](C)CCCCCNCCOC)N(C)C(=O)[C@@H](C(C)C)N(C)C(=O)[C@@H](CC(C)C)N(C)C(=O)[C@@H](CC(C)C)N(C)C(=O)[C@H](C)NC(=O)[C@@H](C)NC(=O)[C@@H](CC(C)C)N(C)C(=O)[C@@H](C(C)C)NC(=O)[C@H](CC(C)C)N(C)C(=O)[C@@H](C)N(C)C1=O [Compound AI, [(6R,7R,8S)-7-Hydroxy-6-methyl-8-(methylamino)-1-N-(2-methoxy)ethylamino-nonanoic acid]^1[(R)-methyl-Sar]^3 cyclosporin A] | – | –
75 to 100 (≈ 104 to 139 µg/mL) | 7.4 | – | CC[C@H]1NC(=O)[C@@H]([C@H](O)[C@H](C)CCN(Cc2ccccn2)Cc2ccccn2)N(C)C(=O)[C@@H](C(C)C)N(C)C(=O)[C@@H](CC(C)C)N(C)C(=O)[C@@H](CC(C)C)N(C)C(=O)[C@H](C)NC(=O)[C@@H](C)NC(=O)[C@@H](CC(C)C)N(C)C(=O)[C@@H](C(C)C)NC(=O)[C@H](CC(C)C)N(C)C(=O)[C@@H](C)N(C)C1=O [Compound DB, [(3R,4R,5S)-1-(Bis{pyridin-2-ylmethyl}amino)-4-hydroxy-3-methyl-5-(methylamino)-hexanoic acid]^1[(R)-methyl-Sar]^3 cyclosporin A] | – | –
– | 5.8 | > 100 | CC[C@H]1NC(=O)[C@@H]([C@H](O)[C@H](C)CCN(C)CCS(N)(=O)=O)N(C)C(=O)[C@@H](C(C)C)N(C)C(=O)[C@@H](CC(C)C)N(C)C(=O)[C@@H](CC(C)C)N(C)C(=O)[C@H](C)NC(=O)[C@@H](C)NC(=O)[C@@H](CC(C)C)N(C)C(=O)[C@@H](C(C)C)NC(=O)[C@H](CC(C)C)N(C)C(=O)[C@@H](C)N(C)C1=O [Compound DE] | – | –
– | – | – | CCC1NC(=O)C(C(O)C(C)CCN(CC)CC)N(C)C(=O)C(C(C)C)N(C)C(=O)C(CC(C)C)N(C)C(=O)C(CC(C)C)N(C)C(=O)C(C)NC(=O)C(C)NC(=O)C(CC(C)C)N(C)C(=O)C(C(C)C)NC(=O)C(CC(C)C)N(C)C(=O)C(C)N(C)C1=O [Compound M, [(3R,4R,5S)-4-hydroxy-3-methyl-5-(methylamino)-1-N-diethylamino-hexanoic acid]^1[(R)-Me-Sar]^3 cyclosporin A] | 75 to 100 | 90
